The test system of data set [1] is Trichophyton mentagrophytes. Briefly: Minimum Inhibiting Concentration test. The note with it: fungi, 25° C., 1 month. The class given is cell-based. The protocol:
(§1) First, 200 mg. each of the compounds, AA, CC, GG, II and MM are placed in 100 ml. of a 10% ethyl alcohol solution resulting in a concentration of 2.00 mg/ml. and then 11 serial two fold dilutions are made to a final concentration of […]. Thus, a range of concentrations of from 0.0001 mg/ml. to 2.00 mg/ml. are prepared. Separately, 1000 ml. of a standard Antibiotic Medium #3 is innoculated with 1 ml. of a 24 hour broth culture of each of the test organisms and the resulting solutions are dispersed in 2 ml. portions into 13 mm×100 mm test tubes at 4° C. Two test tubes for each of the test organisms are prepared.
(§2) Then, 0.4 ml. of each concentration of the compound to be tested is placed in each of the test tubes, which are then shaken and placed at a temperature of 35° C. for a period of 18 hours for bacteria, 25° C. for a period of 3 days for yeast, and 25° C. for a period of 1 month for fungi. The end point of the activity is determined by streaking utilizing a calibrated loop to Trypticase Soy Agar to determine the last tube (concentration) with growth and the next greatest concentration.

Data set [2] relates to Candida albicans. Briefly: Minimum Inhibiting Concentration test. The class given is cell-based. The note with it: yeast, 25° C., 3 days; for MIC: 72 h. On the procedure: as §1, §2
Data set [3] has as its system Proteus vulgaris. Briefly: Minimum Inhibiting Concentration test. The class given is cell-based. To be noted: 35° C., 18 hours. On the procedure: as §1, §2
Data set [4] deals with Aspergillus niger. Briefly: Minimum Inhibiting Concentration test. The note with it: fungi, 25° C., 1 month. Type of data set: cell-based. On the procedure: as §1, §2
In data set [5] the test system is Staphylococcus epidermis. The data set is described as follows: Minimum Inhibiting Concentration test. The class given is cell-based. The note with it: 35° C., 18 hours. On the procedure: as §1, §2
For data set [6], the system named is Escherichia coli. Briefly: Minimum Inhibiting Concentration test. The class given is cell-based. The note with it: 35° C., 18 hours. On the procedure:
as §1, §2

The test system of data set [7] is Staphylococcus pyogenes. Briefly: Minimum Inhibiting Concentration test. Type of data set: cell-based. The note with it: 35° C., 18 hours; for MIC: Staphylococcus aureus. On the procedure:
as §1, §2

Data set [8] deals with Proteus mirabilis. The data set is described as follows: Minimum Inhibiting Concentration test. Type of data set: cell-based. To be noted: 35° C., 18 hours. The protocol: as §1, §2
In data set [9] the test system is Epidermophyton flocossum. Briefly: Minimum Inhibiting Concentration test. The class given is cell-based. The note with it: fungi, 25° C., 1 month. On the procedure: as §1, §2
For data set [10], the system named is Pseudomonas aeruginosa. The data set is described as follows: Minimum Inhibiting Concentration test. Type of data set: cell-based. The note with it: 35° C., 18 hours. The protocol:
as §1, §2

Data set [11] deals with Staphylococcus aureos. The data set is described as follows: Minimum Inhibiting Concentration test. The note with it: 35° C., 18 hours. Type of data set: cell-based. The protocol: as §1, §2
Data set [12] can be described thus: hair fly-away: electrostatic charge of brushed hair tresses (Faraday pail, electrometer). The note with it: one percent aqueous solutions; hair tresses brushed or combed 20 strokes. The protocol: To test the hair fly-away characteristics of the novel bisquaternary ammonium compounds of the present invention, the following test procedure can be utilized.
The hair to be utilized is formed into six inch long, 1.5 gram weight tresses, cleaned with methanol first, then with a 1% solution of sodium lauryl sulfate followed by a rinse with distilled water. The tress is then dried in an oven at 55° C. The tresses except for the controls are then treated with the test compounds and redried at 55° C.
An electrometer (Electrometer Model 610C, Keithley Instrument Co., Cleveland, Ohio) to serve as a coulomb meter for direct measurement of charge is attached to a Faraday pail and switched on.
The test tresses are singly taken out of the drying oven, held at the tied end and brushed or combed twenty strokes alternating between front and back side of the tress as held by the operator. A clean brush or comb is utilized and the velocity with which the brush or comb is traversed through the tress is maintained constant as much as possible. Further, since the electrostatic charges are capable of being quickly dissipated into the atmosphere, the procedure consists of uniformly brushing or combing 20 strokes in a period of 10 seconds and immediately following the last stroke, the lid of the Faraday cage is opened and the tress is dropped into the Faraday pail without contacting any other object and the lid is replaced. The charge in coulombs is read from the electrometer and the tress is then removed from the Faraday pail and the instrument is reset for the next tress sample.
Since electrostatic charge buildup creates fly-away in atmospheres of low humidity, these compounds are useful to prevent said fly-away condition.

For data set [13], the system named is rabbit eye. The data set is described as follows: modified Draize Test, ocular irritation. The class given is in vivo. The note with it: 3.50% of compound in shampoo composition; 0.1 ml per eye, albino rabbit; control shampoo rated Severe Irritant. On the procedure:
The bisquaternary ammonium compounds of the present invention can be tested for ocular irritation by the following modified Draize Test (J. H. Draize et al., Toilet Goods Assn. No. 17, May 1952, No. 1, Proc. Sci. Sect.).
An 0.1 ml. sample of a neutral composition under test is dropped into one eye of an albino rabbit, the other eye serving as a control. Six rabbits are employed for each composition. Observations are made after 1, 24, 48, 72 and 96 hours and 7 days after initial instillation; second and third instillations are made after the 24 and 48 hour readings. Results may vary from substantially no change or only a slight irritation in the appearance of the rabbit's eye after 7 days to severe irritation and/or complete corneal opacity. Ocular lesions are scored for the cornea, iris and conjunctiva with a higher number indicating greater ocular irritation and the scores are added to give a total numerical value for each reading for six rabbits and averaged. The averaged score is an indication of the irritation potential of the composition under test. Based on the averaged score, descriptive irritation evaluation may be given, e.g., none, slight, moderate, severe, as the case may be.
A shampoo composition is prepared consisting of the following ingredients:
This formulation serves as a control with three additional formulations being made with the only difference being that in each of said formulations 3.50% of distilled water is replaced with 3.50% of compound JJ, KK and LL respectively. These formulations are then tested in accordance with the above procedure and the results are shown below in Table I.

Bounds are passed on as bounds.

In the case of `C=CCCCCCCCCC(=O)NCCC[N+](C)(C)CCCC[N+](C)(C)CCCNC(=O)CCCCCCCCC=C` [AA, N,N'-undecenylamidopropyl-N,N,N',N'-tetramethyl-1,-4-butylene diammonium bromide], the MIC in data set [1] came out at 16 µg/mL; in data set [2], 250 µg/mL; in [3], 250 µg/mL; in [4] it was 250 µg/mL; in data set [5] it was 62.5 µg/mL; in [6], 125 µg/mL. Further, the MIC is 500 µg/mL in [7]; < 2000 µg/mL in [8]; 125 µg/mL in data set [9]; 1000 µg/mL in data set [10]; 125 µg/mL in [11].
On to `CCCCCCCCCCCC(=O)NCCC[N+](C)(C)CCOCC[N+](C)(C)CCCNC(=O)CCCCCCCCCCC` [CC, N,N'-di(lauramidopropyl)-N,-N,N',N'-tetramethyl-1,5(3-oxapentylene) diammonium bromide], for which the “charge reduction compared to the control” value in data set [12] is recorded as “greater than 95%”. Moreover, the MIC in data set [1] is 16 µg/mL; in data set [2], 63 µg/mL; in data set [3] it was < 2000 µg/mL; in data set [4] it was 125 µg/mL; in data set [5], 125 µg/mL; in [6], 125 µg/mL. Also, the MIC in data set [7] was 250 µg/mL; in [8], < 2000 µg/mL; in data set [9] it was 62.5 µg/mL; in data set [10], 250 µg/mL; in data set [11], 250 µg/mL.
`CCCCCCCCCCCCCCCCCC(=O)NCC[N+](CC)(CC)CCOCC[N+](CC)(CC)CCNC(=O)CCCCCCCCCCCCCCCCC` [GG, N,N'-di(stearamidoethyl)-N,N,N',N'-tetraethyl-1,5(3-oxapentylene)diammonium dibromide]: the MIC in data set [1] was 16 µg/mL; in [2], 31 µg/mL; in data set [3], < 2000 µg/mL; in data set [4], 250 µg/mL; in data set [5], 62.5 µg/mL; in [6] it was 1000 µg/mL. In addition, the MIC in [7] is < 2000 µg/mL; in data set [8] it was < 2000 µg/mL; in data set [9] it was 250 µg/mL; in data set [10], < 2000 µg/mL; in data set [11], 625 µg/mL.
For `CCCCCCCCCCCCCCCCCCCCCC(=O)NCCC[N+](C)(C)CCOCC[N+](C)(C)CCCNC(=O)CCCCCCCCCCCCCCCCCCCCC` [KK, N,N'-di(docosamidopropyl)-N,N,N',N'-tetramethyl-1,5(3-oxapentylene)diammonium dibromide], the ocular irritation rating result in [13] was “Slight-Moderate Irritant”.
With `CCCCCCCCCCCCCCCCCCCCCC(=O)NCCC[N+](C)(C)CCOCCOCCOCCOCCOCCOCCOCCOCCOCCOCCOCCOCC[N+](C)(C)CCCNC(=O)CCCCCCCCCCCCCCCCCCCCC.[Br-].[Br-]` [LL, N,N'-di(docosamidopropyl)-N,N,N',N'-tetramethyl-1,38(3,6,9,12,15,18,21,24,-27,30,33,36-dodeca-oxaoctatricontylene)diammonium dibromide], in data set [12], the “charge reduction compared to the control” value is listed as “greater than 95%”. For the same compound, in data set [13], the ocular irritation rating result is “Slight-Moderate Irritant”.
For “N,N'-di(octadidecenamidopropyl)-N,N,N',N'-tetramethyl-1,20 (2,5,8,11,14,17,20-heptamethyl-3,6-9,12,15,18-hexaoxaeicosylene) diammonium dibromide [II]”, the minimum inhibiting concentration in [1] is 31 µg/mL; in data set [2] it was 250 µg/mL; in data set [3], < 2000 µg/mL; in [4], 500 µg/mL; in data set [5], 1000 µg/mL; in [6], 500 µg/mL. Moreover, the minimum inhibiting concentration in data set [7] is < 2000 µg/mL; in [8], < 2000 µg/mL; in data set [9] it was 500 µg/mL; in data set [10] it was 2000 µg/mL; in data set [11], 2000 µg/mL.
Regarding “N,N'-di(octatridecenamidopropyl)-N,N,N',N'-tetramethyl-1,5(3-oxapentylene)-diammonium dibromide [JJ]”, the “charge reduction compared to the control” value in data set [12] was “greater than 95%”. The ocular irritation rating result in data set [13] is “Slight Irritant”.

As a reminder, the MIC is the lowest concentration that inhibits growth of the organism. Read a high MIC as a less susceptible organism.

These data come from patent US4312813A, “Bisquaternary ammonium compound” (Johnson & Johnson Baby Products Company, priority 1980, dated 1982).
